Results taken from the NIST ThermoML archive (doi:10.1016/j.jct.2014.09.011).

Experiment: mn = molality of the nth substance listed, in mol/kg
Conditions: 101.3 kPa, Liquid; for speed of sound: Frequency=2 MHz, Linear variable-path acoustic interferometer; for mass density: Pycnometric method

O [water] + C=C[C@H]1CN2CC[C@H]1C[C@H]2[C@H](O)c1ccnc2ccc(OC)cc12.Cl
278.15 K, m2 = 0
Conditions | mass density [kg/m3] | speed of sound [m/s]
– | 999.96 | 1426.2

O [water] + Cl.N=C(N)N
278.15 K, m2 = 0
Conditions | mass density [kg/m3] | speed of sound [m/s]
– | 999.96 | 1426.2

O=C(O)[C@]1(O)C[C@@H](O)[C@@H](O)[C@H](O)C1 + O
Conditions | mass density [kg/m3] | speed of sound [m/s]
278.15 K, m1 = 0.01 | 1000.73 | 1427.1
278.15 K, m1 = 0.0198 | 1001.5 | 1428.1
278.15 K, m1 = 0.0299 | 1002.27 | 1429.2
278.15 K, m1 = 0.0374 | 1002.84 | 1429.9
278.15 K, m1 = 0.0405 | 1003.09 | 1430.2
278.15 K, m1 = 0.0441 | 1003.35 | 1430.6
278.15 K, m1 = 0.0492 | 1003.74 | 1431
278.15 K, m1 = 0.0601 | 1004.55 | 1432.1
278.15 K, m1 = 0.0634 | 1004.82 | 1432.4
278.15 K, m1 = 0.072 | 1005.45 | 1433.3
278.15 K, m1 = 0.0815 | 1006.18 | 1434.3
278.15 K, m1 = 0.0892 | 1006.75 | 1435
278.15 K, m1 = 0.1001 | 1007.56 | 1436.1
288.15 K, m1 = 0.0096 | 999.82 | 1466.7
288.15 K, m1 = 0.0238 | 1000.89 | 1467.9
288.15 K, m1 = 0.0297 | 1001.32 | 1468.4
288.15 K, m1 = 0.0362 | 1001.8 | 1468.9
288.15 K, m1 = 0.0403 | 1002.1 | 1469.3
288.15 K, m1 = 0.0447 | 1002.43 | 1469.6
288.15 K, m1 = 0.0489 | 1002.74 | 1470
288.15 K, m1 = 0.0542 | 1003.11 | 1470.4
288.15 K, m1 = 0.061 | 1003.63 | 1471
288.15 K, m1 = 0.0683 | 1004.16 | 1471.6
288.15 K, m1 = 0.0795 | 1004.98 | 1472.5
288.15 K, m1 = 0.0869 | 1005.52 | 1473.1
288.15 K, m1 = 0.0992 | 1006.4 | 1474.2
298.15 K, m1 = 0.0096 | 997.74 | 1497.4
298.15 K, m1 = 0.0199 | 998.49 | 1498.3
298.15 K, m1 = 0.0254 | 998.89 | 1498.7
298.15 K, m1 = 0.0304 | 999.25 | 1499.1
298.15 K, m1 = 0.0385 | 999.83 | 1499.7
298.15 K, m1 = 0.0415 | 1000.05 | 1500
298.15 K, m1 = 0.0493 | 1000.6 | 1500.6
298.15 K, m1 = 0.0542 | 1000.95 | 1501
298.15 K, m1 = 0.061 | 1001.46 | 1501.5
298.15 K, m1 = 0.0716 | 1002.18 | 1502.4
298.15 K, m1 = 0.0786 | 1002.68 | 1502.9
298.15 K, m1 = 0.0869 | 1003.27 | 1503.6
298.15 K, m1 = 0.1007 | 1004.22 | 1504.7

Cl.N=C(N)N [guanidine hydrochloride] + O
Conditions | mass density [kg/m3] | speed of sound [m/s]
278.15 K, m1 = 0.0101 | 1000.29 | 1427
278.15 K, m1 = 0.0162 | 1000.5 | 1427.5
278.15 K, m1 = 0.0196 | 1000.61 | 1427.8
278.15 K, m1 = 0.0227 | 1000.7 | 1428
278.15 K, m1 = 0.0291 | 1000.91 | 1428.5
278.15 K, m1 = 0.039 | 1001.25 | 1429.3
278.15 K, m1 = 0.0501 | 1001.58 | 1430.3
278.15 K, m1 = 0.0586 | 1001.85 | 1431
278.15 K, m1 = 0.0619 | 1001.96 | 1431.2
278.15 K, m1 = 0.0685 | 1002.17 | 1431.8
278.15 K, m1 = 0.0807 | 1002.54 | 1432.8
278.15 K, m1 = 0.0882 | 1002.78 | 1433.4
278.15 K, m1 = 0.0981 | 1003.08 | 1434.2
288.15 K, m1 = 0.0102 | 999.41 | 1466.6
288.15 K, m1 = 0.0201 | 999.7 | 1467.3
288.15 K, m1 = 0.0267 | 999.9 | 1467.8
288.15 K, m1 = 0.0297 | 999.98 | 1468
288.15 K, m1 = 0.0387 | 1000.25 | 1468.6
288.15 K, m1 = 0.0437 | 1000.41 | 1469
288.15 K, m1 = 0.0502 | 1000.59 | 1469.4
288.15 K, m1 = 0.0598 | 1000.86 | 1470.1
288.15 K, m1 = 0.0634 | 1000.97 | 1470.4
288.15 K, m1 = 0.0697 | 1001.15 | 1470.8
288.15 K, m1 = 0.0798 | 1001.43 | 1471.5
288.15 K, m1 = 0.0926 | 1001.79 | 1472.4
288.15 K, m1 = 0.1009 | 1002.03 | 1473
298.15 K, m1 = 0.0101 | 997.34 | 1497.4
298.15 K, m1 = 0.0162 | 997.52 | 1497.8
298.15 K, m1 = 0.0196 | 997.61 | 1497.9
298.15 K, m1 = 0.0267 | 997.81 | 1498.4
298.15 K, m1 = 0.0299 | 997.9 | 1498.6
298.15 K, m1 = 0.0349 | 998.05 | 1498.9
298.15 K, m1 = 0.0401 | 998.17 | 1499.2
298.15 K, m1 = 0.0515 | 998.5 | 1499.9
298.15 K, m1 = 0.0586 | 998.7 | 1500.4
298.15 K, m1 = 0.0705 | 999.01 | 1501.2
298.15 K, m1 = 0.0807 | 999.29 | 1501.8
298.15 K, m1 = 0.0926 | 999.61 | 1502.5
298.15 K, m1 = 0.1009 | 999.84 | 1503

O [water] + O=C(O)[C@]1(O)C[C@@H](O)[C@@H](O)[C@H](O)C1
278.15 K, m2 = 0
Conditions | mass density [kg/m3] | speed of sound [m/s]
– | 999.96 | 1426.2

C=C[C@H]1CN2CC[C@H]1C[C@H]2[C@H](O)c1ccnc2ccc(OC)cc12.Cl [quinine hydrochloride] + O
Conditions | mass density [kg/m3] | speed of sound [m/s]
278.15 K, m1 = 0.0127 | 1001.09 | 1429.3
278.15 K, m1 = 0.0177 | 1001.51 | 1430.5
278.15 K, m1 = 0.0225 | 1001.92 | 1431.7
278.15 K, m1 = 0.0287 | 1002.46 | 1433.3
278.15 K, m1 = 0.0332 | 1002.86 | 1434.4
278.15 K, m1 = 0.0402 | 1003.44 | 1436.2
278.15 K, m1 = 0.048 | 1004.11 | 1438.1
278.15 K, m1 = 0.0603 | 1005.15 | 1441.1
278.15 K, m1 = 0.0653 | 1005.57 | 1442.4
278.15 K, m1 = 0.0698 | 1005.93 | 1443.5
278.15 K, m1 = 0.0798 | 1006.76 | 1446
278.15 K, m1 = 0.09 | 1007.59 | 1448.5
278.15 K, m1 = 0.0987 | 1008.29 | 1450.7
288.15 K, m1 = 0.0106 | 1000.01 | 1468.3
288.15 K, m1 = 0.0163 | 1000.5 | 1469.6
288.15 K, m1 = 0.022 | 1000.99 | 1470.9
288.15 K, m1 = 0.0294 | 1001.64 | 1472.5
288.15 K, m1 = 0.0361 | 1002.19 | 1474
288.15 K, m1 = 0.0396 | 1002.48 | 1474.8
288.15 K, m1 = 0.0491 | 1003.28 | 1477
288.15 K, m1 = 0.0552 | 1003.79 | 1478.3
288.15 K, m1 = 0.0598 | 1004.17 | 1479.3
288.15 K, m1 = 0.0687 | 1004.9 | 1481.4
288.15 K, m1 = 0.0785 | 1005.7 | 1483.6
288.15 K, m1 = 0.0881 | 1006.49 | 1485.7
288.15 K, m1 = 0.1019 | 1007.59 | 1488.8
298.15 K, m1 = 0.0109 | 997.96 | 1499.2
298.15 K, m1 = 0.0125 | 998.1 | 1499.4
298.15 K, m1 = 0.0199 | 998.7 | 1501.1
298.15 K, m1 = 0.0248 | 999.09 | 1502.2
298.15 K, m1 = 0.0286 | 999.45 | 1502.9
298.15 K, m1 = 0.0378 | 1000.17 | 1504.9
298.15 K, m1 = 0.0473 | 1000.94 | 1506.9
298.15 K, m1 = 0.0544 | 1001.52 | 1508.5
298.15 K, m1 = 0.0594 | 1001.93 | 1509.4
298.15 K, m1 = 0.0677 | 1002.6 | 1511.4
298.15 K, m1 = 0.0785 | 1003.46 | 1513.7
298.15 K, m1 = 0.0881 | 1004.22 | 1515.8
298.15 K, m1 = 0.0987 | 1005.05 | 1518.1
